The text below walks through data of patent US20260285853A1, “COMPOUNDS AND METHODS FOR MODULATING SPLICING” (REMIX THERAPEUTICS INC., priority 2023, published 2026).

Assay type in all cases: cell-based
Assay [1] relates to HTT mRNA. The assay can be described thus: Splicing RT-qPCR assay (THP), Table 2A. The note with it: Table 2A (THP); for AC50: AJ mRNA increase, read-out: HTT AJ (increase in alternative junction mRNA, AC50); for IC50: CJ mRNA decrease, read-out: HTT CJ (decrease in canonical junction mRNA, IC50). In general terms: Real-time PCR tracks product formation cycle by cycle.
Assay [2] relates to MYB mRNA. The experiment in a line: Gene panel canonical junction qPCR assay, decrease in CJ mRNA, Table 3. Conditions: decrease in canonical junction (CJ) mRNA, gene panel qPCR, Table 3. Put shortly:
(§1)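 Canonical exon-junction (CJ) transcript measured by 5′ nuclease RT-qPCR, normalized to GAPDH, GUSB or PPIA and to DMSO control (2^(−ΔΔCt)). A673 or K562 cells treated 24 h at 37° C with an 11-point 3-fold dilution series, top 10 uM, DMSO ≤0.25%. IC50 from 4-parameter logistic fit of percentage CJ decrease.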

In assay [3] the test system is HTT mRNA. The description is as above. Conditions: decrease in canonical junction (CJ) mRNA, gene panel qPCR, Table 3. The method in brief:
as §1

Assay [4] relates to SH-SY5Y (human neuroblastoma) cells. The experiment in a line: Cell viability, Cell Titer Glo 2.0 assay. The note with it: read-out: Viability SHSY5Y.3 GI50. Put shortly:
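SH-SY5Y cells were exposed to serially diluted compounds in IMDM with 10% FBS and 0.1% DMSO for 72 hours at 37° C., 5% CO2. Viability was measured by CellTiter-Glo 2.0 luminescence, with medium-only wells as blank.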
On the technique in general: In ATP-based viability assays light output follows the ATP content of the culture.

Assay [5] concerns MYB mRNA. The experiment in a line: Splicing RT-qPCR assay (THP), Table 2A. Conditions: Table 2A (THP); for AC50: AJ mRNA increase, read-out: MYB AJ (increase in alternative junction mRNA, AC50); for IC50: CJ mRNA decrease, read-out: MYB CJ (decrease in canonical junction mRNA, IC50).

As to `COc1c(NC(=O)c2c(F)cc(N3CCC(NC4CC4)CC3)c3cn(C)nc23)ccn2nc(C)cc12` [Compound 447, 4-(4-(cyclopropylamino)piperidin-1-yl)-6-fluoro-N-(4-methoxy-2-methylpyrazolo-[1,5-a]pyridin-5-yl)-2-methyl-2H-indazole-7-carboxamide 2,2,2-trifluoroacetate], the AC50 in the assay on HTT mRNA [1] and in the assay on MYB mRNA [5] was above 10 µM each time. Further, the IC50 in the assay on HTT mRNA [1] was above 10 µM; in the assay on MYB mRNA [2], 1 to 10 µM; in the assay on HTT mRNA [3] it was above 10 µM; in the assay on MYB mRNA [5], 1 to 10 µM. Also, in assay [4], the GI50 is 1 to 10 µM.

As for `COc1cc2n[nH]cc2cc1NC(=O)c1c(F)cc(N2CCC(NC3CC3)CC2)c2cn(C)nc12` [Compound 449, 4-[4-(cyclopropylamino)-1-piperidyl]-6-fluoro-N-(6-methoxy-2H-indazol-5-yl)-2-methyl-indazole-7-carboxamide], the AC50 in the assay on HTT mRNA [1] and in the assay with MYB mRNA [5] was above 10 µM each time. The IC50 in the assay on HTT mRNA [1], with MYB mRNA [2], in the assay on HTT mRNA [3] and with MYB mRNA [5] was above 10 µM each time. Also, the GI50 in assay [4] is above 10 µM.

Take `COc1cc2nn(C)cc2cc1NC(=O)c1c(N)cc(N2CCC(NC3CC3)CC2)c2cn(C)nc12` [Compound 450, 6-amino-4-[4-(cyclopropylamino)-1-piperidyl]-N-(6-methoxy-2-methyl-indazol-5-yl)-2-methyl-indazole-7-carboxamide]: the AC50 in the assay with HTT mRNA [1] and in the assay on MYB mRNA [5] was above 10 µM each time. Further, the IC50 in the assay on HTT mRNA [1], with MYB mRNA [2], in the assay on HTT mRNA [3] and in the assay on MYB mRNA [5] was above 10 µM in each case. Also, the GI50 in assay [4] was 1 to 10 µM.

On to `Cc1cc2cc(NC(=O)c3ccc(N4CCC(NC5CC5)CC4)c4cn(C)nc34)oc2c(C)n1` [Compound 451, 4-(4-(cyclopropylamino)piperidin-1-yl)-N-(5,7-dimethyl-furo-[2,3-c]pyridin-2-yl)-2-methyl-2H-indazole-7-carboxamide 2,2,2-trifluoroacetate], for which the half-maximal activity concentration (AC50) in the assay with HTT mRNA [1] is above 10 µM; with MYB mRNA [5], 1 to 10 µM. Further, the IC50 was above 10 µM in the assay with HTT mRNA [1], 1 to 10 µM in the assay with MYB mRNA [2], above 10 µM in the assay on HTT mRNA [3] and 1 to 10 µM in the assay with MYB mRNA [5]. Besides, in assay [4], the GI50 was 0.1 to 1 µM.

In the case of `CCNC1CCN(c2ccc(C(=O)Nc3cn4cc(C)nc(C)c4c3OC)c3nn(C)cc23)CC1` [Compound 452, 4-(4-(ethylamino)-piperidin-1-yl)-N-(8-methoxy-1,3-dimethyl-pyrrolo[1,2-a]pyrazin-7-yl)-2-methyl-2H-indazole-7-carboxamide 2,2,2-trifluoroacetate], the AC50 in the assay on HTT mRNA [1] and in the assay with MYB mRNA [5] was above 10 µM in each case. The IC50 in the assay on HTT mRNA [1], in the assay with MYB mRNA [2], in the assay on HTT mRNA [3] and in the assay with MYB mRNA [5] was above 10 µM in each case. Moreover, the 50% growth inhibitory concentration (GI50) in assay [4] lay within 1 to 10 µM.

Regarding `Cc1cn2cc(NC(=O)c3c(F)cc(N4CCC(NC5CC5)CC4)c4cn(C)nc34)c(F)c2c(C)n1` [Compound 453, 4-[4-(cyclopropylamino)-1-piperidyl]-6-fluoro-N-(8-fluoro-1,3-dimethyl-pyrrolo[1,2-a]pyrazin-7-yl)-2-methyl-indazole-7-carboxamide], the AC50 with HTT mRNA [1] is above 10 µM; in the assay on MYB mRNA [5], below 0.1 µM. The IC50 in the assay with HTT mRNA [1] is above 10 µM; in the assay on MYB mRNA [2] it was 0.1 to 1 µM; with HTT mRNA [3] it was above 10 µM; with MYB mRNA [5], 0.1 to 1 µM. The GI50 in assay [4] lay in the range of 1 to 10 µM.

Consider `COc1cc2nn(C)cc2cc1NC(=O)c1c(F)cc(NCC2CCNCC2)c2cn(C)nc12` [Compound 454, 6-fluoro-N-(6-methoxy-2-methyl-indazol-5-yl)-2-methyl-4-(4-piperidylmethylamino)indazole-7-carboxamide], for which the AC50 is above 10 µM in the assay with HTT mRNA [1] and 1 to 10 µM in the assay on MYB mRNA [5]. Also, the IC50 in the assay with HTT mRNA [1], with MYB mRNA [2], in the assay on HTT mRNA [3] and with MYB mRNA [5] was above 10 µM in each case. In addition, the GI50 in assay [4] is above 10 µM.

With `COc1cc2nn(C)cc2cc1NC(=O)c1c(F)cc(N2CC3(CNC3)C2)c2cn(C)nc12` [Compound 455, 4-(2,6-diazaspiro[3.3]-heptan-2-yl)-6-fluoro-N-(6-methoxy-2-methyl-indazol-5-yl)-2-methyl-indazole-7-carboxamide], the AC50 in the assay with HTT mRNA [1] was above 10 µM; in the assay on MYB mRNA [5], 1 to 10 µM. In addition, the IC50 was above 10 µM in the assay with HTT mRNA [1], 1 to 10 µM in the assay with MYB mRNA [2], above 10 µM in the assay on HTT mRNA [3] and 1 to 10 µM in the assay with MYB mRNA [5]. In assay [4], the GI50 is above 10 µM.

`Cc1cc2cc(NC(=O)c3c(F)cc(N4CCC(NC5CC5)CC4)c4cn(C)nc34)oc2c(C)n1` [Compound 456, 4-[4-(cyclopropylamino)-1-piperidyl]-N-(5,7-dimethylfuro-[2,3-c]pyridin-2-yl)-6-fluoro-2-methyl-indazole-7-carboxamide]: the half-maximal activity concentration (AC50) is above 10 µM in the assay on HTT mRNA [1] and below 0.1 µM in the assay with MYB mRNA [5]. The IC50 in the assay on HTT mRNA [1] was above 10 µM; in the assay on MYB mRNA [2], 0.1 to 1 µM; in the assay with HTT mRNA [3], above 10 µM; in the assay with MYB mRNA [5] it was 0.1 to 1 µM. The 50% growth inhibitory concentration (GI50) in assay [4] fell in the range of 1 to 10 µM.

On to `COc1c(NC(=O)c2ccc(N3CCC(NC4CC4)CC3)c3cn(C)nc23)cn2cc(C)nc(C)c12` [Compound 457, 4-[4-(cyclopropylamino)-1-piperidyl]-N-(8-methoxy-1,3-dimethyl-pyrrolo[1,2-a]pyrazin-7-yl)-2-methyl-indazole-7-carboxamide], for which the AC50 in the assay with HTT mRNA [1] and with MYB mRNA [5] was 1 to 10 µM each time. Also, the IC50 with HTT mRNA [1], in the assay on MYB mRNA [2], with HTT mRNA [3] and in the assay on MYB mRNA [5] was 1 to 10 µM each time. The GI50 in assay [4] lay in the range of 1 to 10 µM.

For `C=CCNC1CCN(c2ccc(C(=O)Nc3cn4cc(C)nc(C)c4c3OC)c3nn(C)cc23)CC1` [Compound 458, 4-[4-(allylamino)-1-piperidyl]-N-(8-methoxy-1,3-dimethyl-pyrrolo[1,2-a]pyrazin-7-yl)-2-methyl-indazole-7-carboxamide], the AC50 in the assay with HTT mRNA [1] and in the assay with MYB mRNA [5] was 1 to 10 µM in each case. Moreover, the IC50 with HTT mRNA [1], with MYB mRNA [2], in the assay with HTT mRNA [3] and in the assay on MYB mRNA [5] was 1 to 10 µM throughout. Further, the GI50 in assay [4] was in the range of 1 to 10 µM.

Take `Cn1cc2cc(NC(=O)c3ccc(N4CCC(NC5CC5)CC4)c4cn(C)nc34)c(F)cc2n1` [Compound 459, 4-[4-(cyclopropylamino)-1-piperidyl]-N-(6-fluoro-2-methyl-indazol-5-yl)-2-methyl-indazole-7-carboxamide]: the AC50 with HTT mRNA [1] was above 10 µM; with MYB mRNA [5], 0.1 to 1 µM. Moreover, the IC50 with HTT mRNA [1] was in the range of 1 to 10 µM; with MYB mRNA [2], 0.1 to 1 µM; in the assay with HTT mRNA [3], 1 to 10 µM; in the assay on MYB mRNA [5], 0.1 to 1 µM. The GI50 in assay [4] lay within 1 to 10 µM.

With `COc1nc2nn(C)cc2cc1NC(=O)c1ccc(N2CCC(NC3CC3)CC2)c2cn(C)nc12` [Compound 460, 4-[4-(cyclopropylamino)-1-piperidyl]-N-(6-methoxy-2-methyl-pyrazolo[3,4-b]-pyridin-5-yl)-2-methyl-indazole-7-carboxamide], the half-maximal activity concentration (AC50) with HTT mRNA [1] is 1 to 10 µM; in the assay with MYB mRNA [5], 0.1 to 1 µM. The IC50 in the assay with HTT mRNA [1] was in the range of 1 to 10 µM; in the assay on MYB mRNA [2], 0.1 to 1 µM; with HTT mRNA [3], 1 to 10 µM; in the assay with MYB mRNA [5], 0.1 to 1 µM. The GI50 in assay [4] fell in the range of 1 to 10 µM.

For `COc1c(NC(=O)c2ccc(N3CCC(NC4CC4)CC3)c3cn(C)nc23)cc2cn(C)nc2c1Cl` [Compound 461, N-(7-chloro-6-methoxy-2-methyl-indazol-5-yl)-4-[4-(cyclopropylamino)-1-piperidyl]-2-methyl-indazole-7-carboxamide], the AC50 in the assay with HTT mRNA [1] and in the assay on MYB mRNA [5] was 0.1 to 1 µM each time. The IC50 in the assay on HTT mRNA [1], with MYB mRNA [2], in the assay on HTT mRNA [3] and in the assay with MYB mRNA [5] was 0.1 to 1 µM throughout. Further, in assay [4], the GI50 was 0.1 to 1 µM.

`Cc1cn2cc(NC(=O)c3ccc(N4CCC(NC5CC5)CC4)c4cn(C)nc34)nc2c(-c2cnoc2)n1` [Compound 462, 4-[4-(cyclopropylamino)-1-piperidyl]-N-(8-isoxazol-4-yl-6-methyl-imidazo[1,2-a]-pyrazin-2-yl)-2-methyl-indazole-7-carboxamide]: the AC50 in the assay with HTT mRNA [1] and with MYB mRNA [5] was above 10 µM in each case. Moreover, the half-maximal inhibitory concentration (IC50) in the assay on HTT mRNA [1], with MYB mRNA [2], in the assay on HTT mRNA [3] and with MYB mRNA [5] was above 10 µM each time. The GI50 in assay [4] was 1 to 10 µM.

Regarding `COc1cc2nn(C)cc2cc1NC(=O)c1c(O)cc(N2CCC(NC3CC3)CC2)c2cn(C)nc12` [Compound 463, 4-[4-(cyclopropylamino)-1-piperidyl]-6-hydroxy-N-(6-methoxy-2-methyl-indazol-5-yl)-2-methyl-indazole-7-carboxamide], the AC50 in the assay on HTT mRNA [1] is 1 to 10 µM; with MYB mRNA [5], below 0.1 µM. In addition, the IC50 with HTT mRNA [1] is 1 to 10 µM; in the assay with MYB mRNA [2] it was below 0.1 µM; with HTT mRNA [3], 1 to 10 µM; in the assay with MYB mRNA [5], below 0.1 µM. In addition, in assay [4], the GI50 was in the range of 0.1 to 1 µM.

Broadly, the AC50 is the concentration at which the activity in the assay is half-maximal. By IC50 is commonly meant the point on the concentration scale where inhibition reaches its midpoint. What is called GI50 is the concentration giving 50% growth inhibition.
